In patent US20090137549A1, “Novel compounds useful for the treatment of degenerative & inflamatory diseases” (priority 2006, published 2009):

Molecular target: PDE1A (Homo sapiens, UniProt P54750)
Test: PDE1A primary screening, cAMP dynamic HTRF kit from Cisbio
Type: biochemical
Details: control compounds of the primary screening, 100 nM cAMP
Excerpt: For the primary screening an assay using the cAMP dynamic HTRF® kit from Cisbio (catnr 62AM2PEB) is used. Its principle is based on HTRF® technology (Homogeneous Time-Resolved Fluorescence). The method is a competitive immunoassay between native cAMP and the cAMP labeled with XL665. The tracer binding is visualized by a monoclonal antibody against cAMP, labeled with Cryptate. The specific signal (i.e. energy transfer) is inversely proportional to the concentration of cAMP in the sample (see FIG. 1).
For the enzymatic reaction, a mixture is made of 20 μL with purified PDE1A enzyme, 100 nM cAMP and the compound (10 μM in a final concentration of 1% DMSO) in a black 384-plate. The reaction buffer is Tris 20 mM pH 7.4, 4 μg/mLl calmodulin, 3 mM MgCl2, 1.5 mM CaCl2, 0.2 mg/mL BSA and 0.001% Brij-35®. After an incubation of 30 minutes at room temperature, the reaction is stopped by the addition of 10 μL labelled cAMP-XL665 and 10 μL anti-cAMP-Cryptate. After 1 hour incubation at room temperature, the readout is performed on the Envision (excitation 360 nm; emission donor 615 nm; emission acceptor 665 nm).
PDE1A hydrolyses cAMP into 5′AMP; this low cAMP concentration will result in a high signal. A PDE1A inhibitor will result in a decrease of the signal. […]

## CCCCOc1cc(CC2CNC(=O)N2)ccc1OC (centres unmarked) [Ro-20-1724]
10 μM
  inhibition: 0%

## CCCOc1ccccc1-c1nc2nn[nH]c2c(=O)[nH]1 [Zaprinast]
  inhibition at 10 µM: ~50%
